Like-named read-outs stand apart in the source and are kept apart here.
Key:
[1] = system: Abeta total produced and secreted by SKNBE2 cells (BACE1); assay: BACE1 cellular αLisa assay in SKNBE2 cells, Abeta total; format: cell-based, human; conditions: SKNBE2 cells expressing hAPP695, 18 hours incubation; for IC50: Homo sapiens, SKNBE2, 18 h, read-out: Cellular αLisa assay in SKNBE2 cells Abetatotal pIC50 (converted)
Description: (§1) BACE1 Cellular αLisa Assay in SKNBE2 Cells
(§2) In two αLisa assays the levels of Abeta total and Abeta 1-42 produced and secreted into the medium of human neuroblastoma SKNBE2 cells are quantified. The assay is based on the human neuroblastoma SKNBE2 expressing the wild type Amyloid Precursor Protein (hAPP695). The compounds are diluted and added to these cells, incubated for 18 hours and then measurements of Abeta 1-42 and Abeta total are taken. Abeta total and Abeta 1-42 are measured by sandwich αLisa. αLisa is a sandwich assay using biotinylated antibody AbN/25 attached to streptavidin coated beads and antibody Ab4G8 or cAb42/26 conjugated acceptor beads for the detection of Abeta total and Abeta 1-42 respectively. In the presence of Abeta total or Abeta 1-42, the beads come into close proximity. The excitation of the donor beads provokes the release of singlet oxygen molecules that trigger a cascade of energy transfer in the acceptor beads, resulting in light emission. Light emission is measured after 1 hour incubation (excitation at […] and emission at 615 nm).
(§3) A best-fit curve is fitted by a minimum sum of squares method to the plot of % Controlmin versus compound concentration.

[2] = biological target: T1, BACE1 (Homo sapiens, UniProt P56817); assay: BACE1 biochemical FRET based assay
T1 construct: recombinant BACE1 protein in a final concentration of 0.04 g/ml

[3] = biological target: T2, BACE2 (Homo sapiens, UniProt Q9Y5Z0); assay: BACE2 biochemical FRET based assay; conditions: recombinant BACE2, 450 min, pH 5.0; read-out: BACE2 Biochemical FRET based assay pIC50 (converted)
T2 construct: recombinant BACE2 protein in a final concentration of 0.4 μg/ml
T2 sequence (Q9Y5Z0 63-518): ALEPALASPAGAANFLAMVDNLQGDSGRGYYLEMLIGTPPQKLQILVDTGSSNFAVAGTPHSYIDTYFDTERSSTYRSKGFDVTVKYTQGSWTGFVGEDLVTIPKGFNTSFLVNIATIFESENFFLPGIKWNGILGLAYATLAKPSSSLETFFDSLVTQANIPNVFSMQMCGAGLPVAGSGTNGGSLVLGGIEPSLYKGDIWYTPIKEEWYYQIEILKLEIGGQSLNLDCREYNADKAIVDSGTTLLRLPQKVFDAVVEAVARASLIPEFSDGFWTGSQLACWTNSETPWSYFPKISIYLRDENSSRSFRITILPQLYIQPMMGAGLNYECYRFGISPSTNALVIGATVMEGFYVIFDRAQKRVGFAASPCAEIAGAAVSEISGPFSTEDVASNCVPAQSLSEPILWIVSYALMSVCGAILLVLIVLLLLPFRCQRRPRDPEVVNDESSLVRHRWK

[4] = system: Abeta 1-42 produced and secreted by SKNBE2 cells (BACE1); assay: BACE1 cellular αLisa assay in SKNBE2 cells, Abeta 1-42; format: cell-based, human; conditions: SKNBE2 cells expressing hAPP695, 18 hours incubation; for IC50: Homo sapiens, SKNBE2, 18 h, read-out: Cellular αLisa assay in SKNBE2 cells Abeta 42 pIC50 (converted)
Description: as §1, §2, §3

[5] = recombinant BACE1, 450 min, pH 5.0, read-out: BACE1 Biochemical FRET based assay pIC50 (converted)
[6] = Table 10, comparison with WO2012/085038 compounds, read-out: IC50 (nM), BACE1 biochemical FRET based assay

T1 sequence (P56817 46-501): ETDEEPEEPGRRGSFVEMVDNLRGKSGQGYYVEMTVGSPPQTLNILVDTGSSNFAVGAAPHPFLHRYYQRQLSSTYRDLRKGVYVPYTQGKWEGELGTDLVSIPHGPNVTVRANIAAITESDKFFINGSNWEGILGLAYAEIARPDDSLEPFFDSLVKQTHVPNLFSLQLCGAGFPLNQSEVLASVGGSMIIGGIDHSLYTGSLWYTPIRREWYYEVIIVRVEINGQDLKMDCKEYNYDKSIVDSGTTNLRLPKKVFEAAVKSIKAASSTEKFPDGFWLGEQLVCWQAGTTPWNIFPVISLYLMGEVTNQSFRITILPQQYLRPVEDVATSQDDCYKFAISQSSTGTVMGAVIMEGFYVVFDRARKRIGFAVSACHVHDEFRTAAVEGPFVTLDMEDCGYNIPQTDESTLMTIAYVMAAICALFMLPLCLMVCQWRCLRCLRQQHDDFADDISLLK

| Structure (SMILES) | IC50 [1] [nM] | IC50 [2, 5] [nM] | IC50 [3] [nM] | IC50 [4] [nM] | Cellular αLisa assay in SKNBE2 cells Abetatotal pIC50 [1] | Cellular αLisa assay in SKNBE2 cells Abeta 42 pIC50 [4] | IC50 [2, 6] [nM] |
| --- | --- | --- | --- | --- | --- | --- | --- |
| COc1cnc(C(=O)Nc2ccc(F)c(C3(CF)Cn4cncc4C(N)=N3)c2)cn1 (single isomer, unassigned) [Compound 14, N-{3-[8-amino-6-(fluoromethyl)-5,6-dihydroimidazo[1,5-a]pyrazin-6-yl]-4-fluorophenyl}-5-methoxypyrazine-2-carboxamide (R or S)] | – | 933 | 5370 | – | 6.06 | 6.07 | – |
| COc1cnc(C(=O)Nc2ccc(F)c(C3(CF)Cn4cncc4C(N)=N3)c2)cn1 (single isomer, unassigned) [Compound 15, N-{3-[8-amino-6-(fluoromethyl)-5,6-dihydroimidazo[1,5-a]pyrazin-6-yl]-4-fluorophenyl}-5-methoxypyrazine-2-carboxamide (S or R)] | – | 2.24 | 37.2 | – | 8.74 | 8.74 | – |
| C[C@@]1(c2cc(NC(=O)c3ccc(C#N)cn3)ccc2F)Cn2c(C(F)F)cnc2C(N)=N1 [75 (WO2012/085038), reference compound] | – | – | – | – | – | – | 13.8 |
| COc1cnc(C(=O)Nc2ccc(F)c([C@]3(C)Cn4cncc4C(N)=N3)c2)cn1 [Compound 1, N-{3-[(6R)-8-Amino-6-methyl-5,6-dihydroimidazo[1,5-a]pyrazin-6-yl]-4-fluorophenyl}-5-methoxypyrazine-2-carboxamide] | 2.75 | 4.9 | 55 | 3.31 | – | – | – |
| C[C@@]1(c2cc(-c3cncnc3)ccc2F)Cn2cncc2C(N)=N1 [Compound 2, (6R)-6-(2-Fluoro-5-pyrimidin-5-ylphenyl)-6-methyl-5,6-dihydroimidazo[1,5-a]pyrazin-8-amine] | 229 | 708 | 7240 | 245 | – | – | – |
| Cc1ncn2c1C(N)=N[C@](C)(c1cc(-c3cncnc3)ccc1F)C2 [Compound 6, (6R)-6-(2-Fluoro-5-pyrimidin-5-ylphenyl)-1,6-dimethyl-5,6-dihydroimidazo[1,5-a]pyrazin-8-amine] | > 10000 | > 10000 | – | > 10000 | – | – | – |
| Cc1cc(C#N)cnc1C(=O)Nc1ccc(F)c([C@]2(C)Cn3cncc3C(N)=N2)c1 [Compound 7, N-{3-[(6R)-8-amino-6-methyl-5H-imidazo[1,5-a]pyrazin-6-yl]-4-fluoro-phenyl}-5-cyano-3-methyl-pyridine-2-carboxamide] | 5.5 | 3.98 | 8.13 | 6.17 | – | – | – |
| C[C@@]1(c2cc(NC(=O)c3ccc(F)cn3)ccc2F)Cn2cncc2C(N)=N1 [Compound 8, N-{3-[(6R)-8-amino-6-methyl-5,6-dihydroimidazo[1,5-a]pyrazin-6-yl]-4-fluorophenyl}-5-fluoropyridine-2-carboxamide] | 17.4 | 22.4 | 12.6 | 19.1 | – | – | – |
| C[C@@]1(c2cc(NC(=O)c3ccc(C#N)cn3)ccc2F)Cn2c(cnc2C#N)C(N)=N1 [Compound 9, N-{3-[(6R)-8-Amino-3-cyano-6-methyl-5,6-dihydroimidazo[1,5-a]pyrazin-6-yl]-4-fluorophenyl}-5-cyanopyridine-2-carboxamide] | 2.24 | 1.45 | 2.14 | 2 | – | – | – |
| C[C@@]1(c2cc(NC(=O)c3ccc(Cl)cn3)ccc2F)Cn2c(cnc2C(F)F)C(N)=N1 [Compound 11, N-{3-[(6R)-8-amino-3-(difluoromethyl)-6-methyl-5,6-dihydroimidazo[1,5-a]pyrazin-6-yl]-4-fluoropheny}-5-chloropyridine-2-carboxamide] | 0.631 | 3.16 | 2.75 | 0.575 | – | – | 3.16 |
| COc1cnc(C(=O)Nc2ccc(F)c([C@]3(C)Cn4c(cnc4C(F)F)C(N)=N3)c2)cn1 [Compound 12, N-{3-[(6R)-8-amino-3-(difluoromethyl)-6-methyl-5,6-dihydroimidazo[1,5-a]pyrazin-6-yl]-4-fluoropheny}-5-methoxypyrazine-2-carboxamide] | 0.851 | 3.8 | 24 | 0.813 | – | – | 3.8 |

Other lines, results leading:

| IC50 [1] [nM] | IC50 [2, 5] [nM] | IC50 [3] [nM] | IC50 [4] [nM] | Cellular αLisa assay in SKNBE2 cells Abetatotal pIC50 [1] | Cellular αLisa assay in SKNBE2 cells Abeta 42 pIC50 [4] | IC50 [2, 6] [nM] | Structure (SMILES) |
| --- | --- | --- | --- | --- | --- | --- | --- |
| 3.63 | 8.32 | 93.3 | 3.63 | – | – | – | COc1cnc(C(=O)Nc2ccc(F)c(C3(CF)Cn4cncc4C(N)=N3)c2)cn1 (racemic) [Compound 13, (rac)-N-{3-[8-Amino-6-(fluoromethyl)-5,6-dihydroimidazo[1,5-a]pyrazin-6-yl]-4-fluorophenyl}-5-methoxypyrazine-2-carboxamide] |
| – | – | – | – | – | – | 18.6 | C[C@@]1(c2cc(NC(=O)c3ccc(Cl)cn3)ccc2F)Cn2c(C(F)F)cnc2C(N)=N1 [74 (WO2012/085038), reference compound] |
| – | – | – | – | – | – | 83.2 | COc1cnc(C(=O)Nc2ccc(F)c([C@]3(C)Cn4c(C(F)F)cnc4C(N)=N3)c2)cn1 [76 (WO2012/085038), reference compound] |
| 2.34 | 3.16 | 4.07 | 2.95 | – | – | 3.16 | C[C@@]1(c2cc(NC(=O)c3ccc(Cl)cn3)ccc2F)Cn2cncc2C(N)=N1 [Compound 3, N-{3-[(6R)-8-amino-6-methyl-5,6-dihydroimidazo[1,5-a]pyrazin-6-yl]-4-fluorophenyl}-5-chloropyridine-2-carboxamide] |
| 1.07 | 3.47 | 15.8 | 0.955 | – | – | 3.47 | C[C@@]1(c2cc(NC(=O)c3ccc(C#N)cn3)ccc2F)Cn2c(cnc2C(F)F)C(N)=N1 [Compound 10, N-{3-[(6R)-8-amino-3-(difluoromethyl)-6-methyl-5,6-dihydroimidazo[1,5-a]pyrazin-6-yl]-4-fluorophenyl}-5-cyanopyridine-2-carboxamide] |
| 2.14 | 1.38 | 9.55 | 1.91 | – | – | – | C[C@@]1(c2cc(NC(=O)c3ccc(C#N)cn3)ccc2F)Cn2c(cnc2CC2CC2)C(N)=N1 [Compound 16, N-{3-[(6R)-8-Amino-3-(cyclopropylmethyl)-6-methyl-5,6-dihydroimidazo[1,5-a]pyrazin-6-yl]-4-fluorophenyl}-5-cyanopyridine-2-carboxamide] |
| 5.25 | 1.86 | – | 4.79 | – | – | – | CC(=O)NCc1ncc2n1C[C@@](C)(c1cc(NC(=O)c3ccc(C#N)cn3)ccc1F)N=C2N [Compound 17, N-(3-{(6R)-3-[(Acetylamino)methyl]-8-amino-6-methyl-5,6-dihydroimidazo[1,5-a]pyrazin-6-yl}-4-fluorophenyl)-5-cyanopyridine-2-carboxamide] |

From patent publication US9580433B2 (Janssen Pharmaceutica NV, priority 2013, dated 2017)
